Measured values from US7666985B2, “HLA-A24-restricted cancer antigen peptides” (International Institute of Cancer Immunology, Inc., priority 2002, dated 2010).
“Also recorded” adds a separate entry of the source. Where two headings read alike, the source gives them in different places. Square brackets hold non-standard residues; d marks the D form. Ends that are not written are not given here. Abu = CC[C@H](N)C(=O)O

Tests used:
[1] = system: Jurkat-A2402/K^b cells pulsed with the peptide; test: CTL-inducing activity (immunogenicity) in HLA-A2402/K^b transgenic mouse, 51Cr release assay; type: in vivo; details: for immunogenicity (activity to induce CTLs; cytotoxic activity, % Specific Lysis): HLA-A2402/K^b transgenic mice (three per peptide) immunized s.c. with peptide + helper peptide in IFA, splenocytes stimulated in vitro 6 days, E/T ratio of 80; for immunogenicity (activity to induce CTLs; cytotoxic activity, % Specific Lysis) / induction of specific CTLs (cytotoxic activity, % Specific Lysis): peptide-pulsed vs non-pulsed Jurkat-A2402/K^b targets; for induction of specific CTLs (cytotoxic activity, % Specific Lysis): Reference 9: transgenic mouse (04-1 line) immunized with known HLA-A24-restricted cancer antigen peptide + helper peptide in IFA
Description: Specifically, HER-2/neu780-788 and helper peptide were adjusted to 40 mg/ml and 20 mg/ml, respectively, in DMSO and diluted with a physiological saline to 2 mg/ml and 1 mg/ml, respectively. They were mixed with an equal amount of Freund's incomplete adjuvant (Wako Pure Chemical Industries, Ltd.) using a glass syringe to prepare a water-in-oil emulsion. The resultant preparation (200 μl) was injected into a transgenic mouse (04-1 line) subcutaneously in the base of the tail for immunization. Seven days after the initiation of experiment, the spleen was removed and grounded on the frosted part of glass slide, and splenocytes were recovered and prepared. A portion of the splenocytes undergone hemolysis treatment with an ACK buffer (0.15 M NH4Cl, 10 mM KHCO3, 0.1 mM EDTA, pH 7.2-7.4) was exposed to X ray radiation (2,000 rad), pulsed with the above-mentioned peptide (100 μg/ml) for 1 hour, and seeded into a 24-well plate at 0.7×10^6/well. Non-radiated, non-peptide-pulsed splenocytes (7×10^6/well) were added together and stimulated again at 37° C. (final concentration of peptide, 1 μg/ml). In vitro stimulation was carried out for 6 days in […] of a culture solution (CTM culture solution) containing 10% FCS, 10 mM HEPES, 20 mM L-glutamine, 1 mM sodium pyruvate, 1 mM MEM nonessential amino acid, 1% MEM vitamin and 55 μM 2-mercaptoethanol in RPMI 1640 medium.
On the other hand, Jurkat-A2402/K^b cells prepared in Reference 8 were labeled with ^51Cr (3.7 MBq/10^6 cells) and pulsed with the peptide above at 100 μg/ml for one hour. The labeling was carried out over 2 hours, and 1 hour after initiation of labeling, peptide was added to make the final concentration 100 μg/ml. Cells that were not pulsed with peptide were prepared as control target cells.
CTL-inducing activity was determined by ^51Cr release assay (J. Immunol., 159:4753, 1997), wherein the previously prepared transgenic mouse splenocyte preparation was added to said Jurkat-A2402/K^b cells as the target cells.
Immunogenicity of each antigen peptide was evaluated using the HLA-A2402/K^b transgenic mouse as constructed in aforementioned References. For the evaluation of each peptide for its immunogenicity, three transgenic mice were immunized with one peptide.
Specifically, each antigen peptide and the helper peptide were adjusted to 40 mg/ml and 20 mg/ml, respectively, in DMSO, and diluted with a physiological saline to 2 mg/ml and 1 mg/ml, respectively. They were then mixed with an equal amount of Freund's incomplete adjuvant (IFA) using a glass syringe to prepare a water-in-oil emulsion. The resultant emulsion (200 μl) was injected into the HLA-A2402/K^b transgenic mouse subcutaneously in the base of the tail for immunization. Seven days after the initiation of experiment, the spleen was removed and grounded on the frosted part of glass slide, and splenocytes were recovered and prepared. A portion of the splenocytes undergone hemolysis treatment with an ACK buffer (0.15 M NH4Cl, 10 mM KHCO3, 0.1 mM EDTA, pH 7.2-7.4) was exposed to X ray radiation (2,000 rad), then pulsed with the above-mentioned peptide (100 μg/ml) for 1 hour, and seeded into a 24-well plate at 7×10^6/well. Simultaneously, non-radiated, non-peptide-pulsed splenocytes (7×10^5/well) were added together and stimulated in vitro at 37° C. for 6 days. The in vitro stimulation was carried out in RPMI1640 medium supplemented with 10% FCS, 10 mM HEPES, 20 mM L-glutamine, 1 mM sodium pyruvate, 1 mM MEM nonessential amino acids, 1% MEM vitamin and 55 μM 2-mercaptoethanol.
Then, the test for cytotoxic activity was conducted according to the conventional manner. Jurkat-A2402/K^b cells (Reference 8), and Jurkat-A2402/K^b cells pulsed with the peptide were used as target cells (T). These cells were labeled with ^51Cr (3.7 MBq/10^6 cells) and pulsed with the peptide at 100 μg/ml for one hour (The labeling was carried out over 2 hours, and 1 hour after the initiation of labeling, the peptide was added).

[2] = system: Jurkat-A2402/K^b cells pulsed with the natural or non-substituted peptide; details: for cross-reactivity of effector cells induced by the substituted peptide to the non-substituted peptide (cytotoxic activity): mice immunized with peptide M or N, targets pulsed with peptide M or N, with peptide H, or without any peptide
Description: Cross-reactivity of the effector cells induced by the altered peptide to the natural peptide was tested. Effector cells induced by immunizing the mice with the altered form: peptide H (E) and target cells of the Jurkat-A2402/K^b cells pulsed with the natural form: peptide C (T) were combined and reacted at an E/T ratio of 80, and the cytotoxic activity was determined by ^51Cr release assay.
Cross-reactivity of the effector cells induced by the substituted peptide to the non-substituted peptide was tested. To effector cells induced by immunizing the mice with peptide M or N (E), target cells of the Jurkat-A2402/K^b cells pulsed with peptide M or N, with peptide H, or without any peptide (T) were reacted, and the cytotoxic activities of the effector cells were determined by ^51Cr release assay.

[3] = system: C1R-A*2402 cells pulsed with the natural peptide of SEQ ID NO: 7; details: PBMC from HLA-A2402 positive healthy donors stimulated in vitro with 10 μM peptide; E/T ratio of 10, 20 or 40
Description: (§1) Peripheral blood mononuclear cells were separated from healthy donors positive for HLA-A2402, and were placed into wells of a 24-well plate at 4×10^6 cells/well. To the wells, the natural peptide of SEQ ID NO: 7 or the altered peptide of SEQ ID NO: 3 was added at a concentration of 10 μM, and the mixture was incubated for a week in a culture medium comprising 45% RPMI1640, 45% AIV, 10% inactivated human AB serum, 1× nonessential amino acids, 25 ng/ml 2-mercaptoethanol, […] streptomycin, and 50 U/ml penicillin. After the incubation, the cells were adjusted to 2×10^6 cells/well, which were used as responder cells hereafter. On the other hand, peripheral blood mononuclear cells separated from the same healthy donors were incubated together with 10 μM of either of these peptides for 4 hours to accomplish the pulsing with peptide, and then radiated at 30 Gy. The cells were adjusted to 4×10^6 cells/well, which were used as stimulator cells hereafter.
(§2) The responder cells and the stimulator cells thus prepared were mixed together, and the mixture was added with IL-2 at 30 U/ml, and incubated. A similar stimulation of the responder cells with the stimulator cells was conducted three times with an interval of a week. The cytotoxic activity in those cells thus obtained was determined by ^51Cr release assay wherein the cytotoxic activity was determined by reacting the C1R-A*2402 cells positive for an HLA-A24 (Int. J. Cancer, 81, p 387, 1999) labeled with ^51Cr that were pulsed with the natural peptide of SEQ ID NO: 7 as target cells (T), and the cells stimulated with the natural peptide of SEQ ID NO: 7 or the altered peptide of SEQ ID NO: 3 as described above (effector cells)(E) at an E/T ratio of 10, 20 or 40. […] Further, a lung cancer cell line positive for WT1 and positive for an HLA-A24, RERF-LC-AI cells; a lung cancer cell line positive for WT1 and negative for an HLA-A2402, 11-18 cells; or a lung cancer cell line negative for WT1 and positive for an HLA-A24, 11-18 cells were used as target cells to determine the cytotoxic activities of the effector cells described above in a similar manner by ^51Cr release assay.

RERF-LC-AI cells = details: PBMC effector cells stimulated with peptide, targets RERF-LC-AI (WT1+, HLA-A24+) versus WT1+/HLA-A2402- and WT1-/HLA-A24+ lung cancer lines (LK87, 11-18)
Description: as §1, §2

Substance: ALLPAVPSL [peptide K, natural peptide, positions 10 to 18 of human WT1]
- immunogenicity (activity to induce CTLs; cytotoxic activity, % Specific Lysis) [1]: have no immunogenicity; also recorded: no specific CTL was induced

Substance: RYPSAQKKF [peptide N]
- cross-reactivity of effector cells induced by the substituted peptide to the non-substituted peptide (cytotoxic activity) [2]: exhibited a cytotoxic activity against all of the cells pulsed with the substituted peptides

Substance: HER-2/neu780-788: HLA-A24-restriced peptide derived from human tumor antigen HER-2/neu (PYVSRLLGI) [reference compound]
- induction of specific CTLs (cytotoxic activity, % Specific Lysis) [1]: induction of specific CTLs by stimulation with HER-2/neu780-788 was observed
- induction of specific CTLs (cytotoxic activity, % Specific Lysis) ([1]; listed as HER2/neu780-788): specific CTLs were induced

Substance: RWPSCQKKF [peptide C, natural peptide, positions 417 to 425 of human WT1]
- immunogenicity (activity to induce CTLs; cytotoxic activity, % Specific Lysis) [1]: have no immunogenicity; also recorded: no specific CTL was induced

Substance: RVPGVAPTL [peptide B]
- CTL-inducing activity (cytotoxic activity) [3]: CTLs were induced
- cytotoxic activity of effector cells on lung cancer cell lines (RERF-LC-AI cells): CTLs were induced
- cytotoxic activity of effector cells on lung cancer cell lines (RERF-LC-AI cells; listed as SEQ ID NO: 7): specifically injured only the RERF-LC-AI cells

Substance: AYLPAVPSL [peptide I, altered peptide K, position 2 altered into tyrosine]
- immunogenicity (activity to induce CTLs; cytotoxic activity, % Specific Lysis) [1]: have a high immunogenicity; also recorded: specific CTLs were induced

Substance: MAGE-3195-203: known HLA-A24-restricted cancer antigen peptide derived from MAGE-3 [reference compound]
- induction of specific CTLs (cytotoxic activity, % Specific Lysis) [1]: induction of specific CTLs by stimulation with these known HLA-A24-resticted cancer antigen peptides was observed; also recorded: specific CTLs were induced

Substance: CEA268-277: known HLA-A24-restricted cancer antigen peptide derived from CEA [reference compound]
- induction of specific CTLs (cytotoxic activity, % Specific Lysis) [1]: induction of specific CTLs by stimulation with these known HLA-A24-resticted cancer antigen peptides was observed; also recorded: specific CTLs were induced

Substance: QYRIHTHGVF [peptide D, natural peptide, positions 285 to 294 of human WT1]
- immunogenicity (activity to induce CTLs; cytotoxic activity, % Specific Lysis) [1]: no specific CTL was induced

Substance: RYPSCQKKF [peptide H]
- cross-reactivity of effector cells induced by the altered peptide to the natural peptide (cytotoxic activity) ([2]; mice immunized with peptide H, targets pulsed with peptide H or natural peptide C, E/T ratio of 80): exhibited a cytotoxic activity against both cells pulsed with the altered and natural forms

Substance: RYPSSQKKF [peptide M]
- cross-reactivity of effector cells induced by the substituted peptide to the non-substituted peptide (cytotoxic activity) [2]: exhibited a cytotoxic activity against all of the cells pulsed with the substituted peptides

Substance: AYPGCNKRYF [peptide E, natural peptide, positions 326 to 335 of human WT1]
- immunogenicity (activity to induce CTLs; cytotoxic activity, % Specific Lysis) [1]: no specific CTL was induced

Substance: NQMNLGATL [peptide L, natural peptide, positions 239 to 247 of human WT1]
- immunogenicity (activity to induce CTLs; cytotoxic activity, % Specific Lysis) [1]: have no immunogenicity; also recorded: no specific CTL was induced

Substance: RYPGVAPTL [peptide G]
- CTL-inducing activity (cytotoxic activity) [3]: CTLs were induced
- cytotoxic activity of effector cells on lung cancer cell lines (RERF-LC-AI cells): CTLs were induced

Substance: CEA652-660: known HLA-A24-restricted cancer antigen peptide derived from CEA [reference compound]
- induction of specific CTLs (cytotoxic activity, % Specific Lysis) [1]: induction of specific CTLs by stimulation with these known HLA-A24-resticted cancer antigen peptides was observed; also recorded: specific CTLs were induced

Substance: RYFPNAPYL [peptide F]
- immunogenicity (activity to induce CTLs; cytotoxic activity, % Specific Lysis) [1]: have a high immunogenicity; also recorded: specific CTLs were induced

Substance: NYMNLGATL [peptide J, altered peptide L, position 2 altered into tyrosine]
- immunogenicity (activity to induce CTLs; cytotoxic activity, % Specific Lysis) [1]: have a high immunogenicity; also recorded: specific CTLs were induced

Substance: Arg-Tyr-Pro-Ser-Abu-Gln-Lys-Lys-Phe (RYPS[Abu]QKKF) [peptide O, peptide H with cysteine at position 5 substituted with α-aminobutyric acid]
- immunogenicity (cytotoxic activity, % Specific Lysis) ([1]; Example 5: HLA-A24 expressing transgenic mouse immunized with peptide, effector and target cells mixed at various E/T ratios): immunogenicity equivalent to the non-substituted peptide, peptide H; also recorded: specific CTLs were induced
